Tests used:
[1] = test system: inside of upper parts of arms; assay: Test of a cooling towel (direct spraying), sensory evaluation; type: in vivo, human (panelists)
Description: Those which were air-dried for 10 minutes, 3 hours or 24 hours after spraying were sensory evaluated. The sensory evaluation was carried out by touching the cooling towel with the inside of upper parts of arms, and cooling action at that time was determined. Meanwhile, the evaluation was carried out by five panelists having 5 years or longer experience. […] The results are shown by the total score of the ranking numbers. In other words, smaller total score means to show a better cooling sensation effect.

[2] = test system: inside of upper parts of arms; assay: Test of a cooling towel (washing processed), sensory evaluation; type: in vivo, human (panelists); conditions: for total score of the ranking numbers (cooling effect on treated hand towel after washing): 1% in washing detergent
Description: The hand towel thus prepared and those after further air-dried for 24 hours or 48 hours were brought into contact with the inside of upper parts of arms, and the cooling action thereof was determined organoleptically. Meanwhile, the evaluation was carried out by five panelists having 5 years or longer experience. The above compounds, mixtures and menthoxypropanediol were divided into three groups of A to C (group A; […] The results are shown by the total score of the ranking numbers. […] In other words, smaller total score means to show a better cooling sensation effect.

[3] = Group A (5 samples ranked by 5 panelists, smaller = better), direct spraying 1 g of 1% ethanol solution, after 10 min air drying
[4] = Group A, direct spraying, after 3 hr air drying, smaller = better
[5] = Group A, direct spraying, after 24 hr air drying, smaller = better
[6] = Group A (4 samples ranked by 5 panelists, smaller = better), after 6 hr air drying
[7] = Group A, after 24 hr, smaller = better
[8] = Group A, after 48 hr, smaller = better
[9] = Group B, direct spraying, after 10 min air drying, smaller = better
[10] = Group B, direct spraying, after 3 hr air drying, smaller = better
[11] = Group B, direct spraying, after 24 hr air drying, smaller = better
[12] = Group B, after 6 hr, smaller = better
[13] = Group B, after 24 hr, smaller = better
[14] = Group B, after 48 hr, smaller = better
[15] = Group C, direct spraying, after 10 min air drying, smaller = better
[16] = Group C, direct spraying, after 3 hr air drying, smaller = better
[17] = Group C, direct spraying, after 24 hr air drying, smaller = better
[18] = Group C, after 6 hr, smaller = better
[19] = Group C, after 24 hr, smaller = better
[20] = Group C, after 48 hr, smaller = better

| SMILES | total score of the ranking numbers (cooling effect on treated hand towel) [1, 3] | total score of the ranking numbers (cooling effect on treated hand towel) [1, 4] | total score of the ranking numbers (cooling effect on treated hand towel) [1, 5] | total score of the ranking numbers (cooling effect on treated hand towel after washing) [2, 6] | total score of the ranking numbers (cooling effect on treated hand towel after washing) [2, 7] | total score of the ranking numbers (cooling effect on treated hand towel after washing) [2, 8] | total score of the ranking numbers (cooling effect on treated hand towel) [1, 9] | total score of the ranking numbers (cooling effect on treated hand towel) [1, 10] | total score of the ranking numbers (cooling effect on treated hand towel) [1, 11] | total score of the ranking numbers (cooling effect on treated hand towel after washing) [2, 12] | total score of the ranking numbers (cooling effect on treated hand towel after washing) [2, 13] | total score of the ranking numbers (cooling effect on treated hand towel after washing) [2, 14] | total score of the ranking numbers (cooling effect on treated hand towel) [1, 15] | total score of the ranking numbers (cooling effect on treated hand towel) [1, 16] | total score of the ranking numbers (cooling effect on treated hand towel) [1, 17] | total score of the ranking numbers (cooling effect on treated hand towel after washing) [2, 18] | total score of the ranking numbers (cooling effect on treated hand towel after washing) [2, 19] | total score of the ranking numbers (cooling effect on treated hand towel after washing) [2, 20] | other results |
| --- | --- | --- | --- | --- | --- | --- | --- | --- | --- | --- | --- | --- | --- | --- | --- | --- | --- | --- | --- |
| CC1CCC(C(C)C)C(OCCOC(=O)CCC(=O)OC2CC(C)CCC2C(C)C)C1 (stereo not drawn) [Compound 1, l-menthyl-(l-menthoxyethyl)succinic ester] | 18 | 12 | 11 | 11 | 10 | 13 | – | – | – | – | – | – | – | – | – | – | – | – | – |
| CC(C)[C@@H]1CC[C@@H](C)C[C@H]1O [Compound 1-Menthol, l-menthol, reference compound] | 6 | 24 | 25 | – | – | – | 7 | 24 | 25 | – | – | – | – | – | – | – | – | – | cooling action (in words) ([1]; direct spraying, after air drying for 10 minutes): strongest cooling action; lasting / consistency of cooling action (in words) ([1]; direct spraying, over 10 min to 24 hr): less consistent |
| CC(C)[C@@H]1CC[C@@H](C)C[C@H]1OCC(O)COC(=O)CCC(=O)O[C@@H]1C[C@H](C)CC[C@H]1C(C)C (stereo partly drawn) [Compound 2, l-menthyl-3-(l-menthoxy)-2-(hydroxypropyl)succinic ester] | 18 | 13 | 13 | 13 | 11 | 12 | – | – | – | – | – | – | – | – | – | – | – | – | – |
| C=C(C)C1CCC(C)CC1OC(=O)CCC(=O)OC1CC(C)CCC1C(C)C (stereo not drawn) [Compound 3, l-menthyl-(l-isopulegyl)succinic ester] | – | – | – | – | – | – | 16 | 10 | 10 | 11 | 10 | 10 | – | – | – | – | – | – | – |
| CC(C)=CCCC(C)CCOC(=O)CCC(=O)OC1CC(C)CCC1C(C)C (stereo not drawn) [Compound 4, l-menthyl-(l-citronellyl)succinic ester] | – | – | – | – | – | – | – | – | – | – | – | – | 16 | 18 | 16 | 10 | 12 | 11 | – |
| CC1CCC(C(C)C)C(OC(=O)CCCC(=O)OCCc2ccccc2)C1 (stereo not drawn) [Compound 6, l-menthyl-(phenylethyl)glutaric ester] | – | – | – | – | – | – | 17 | 14 | 14 | 13 | 14 | 14 | – | – | – | – | – | – | – |
| CC(C)=CCCC(C)CCOC(=O)CCCC(=O)OC1CC(C)CCC1C(C)C (stereo not drawn) [Compound 7, l-menthyl-(l-citronellyl)glutaric ester] | – | – | – | – | – | – | – | – | – | – | – | – | 15 | 17 | 18 | – | – | – | – |
| CC1CCC(C(C)C)C(OCCOC(=O)CCCC(=O)OC2CC(C)CCC2C(C)C)C1 (stereo not drawn) [Compound 8, l-menthyl-(l-menthoxyethyl)-glutaric ester] | – | – | – | – | – | – | – | – | – | – | – | – | 13 | 12 | 11 | 13 | 13 | 13 | – |
| CC1CCC(C(C)C)C(OC(=O)CCCC(=O)OC2CC(C)CCC2C(C)C)C1 (stereo not drawn) [Dimenthylglutaric acid, reference compound] | 22 | 20 | 21 | – | – | – | 22 | 20 | 19 | – | – | – | 22 | 21 | 23 | – | – | – | – |
| CC1CCC(C(C)C)C(OCC(O)CO)C1 (stereo not drawn) [Menthoxypropanediol, l-menthoxypropanediol, reference compound] | – | – | – | 19 | 20 | 19 | – | – | – | 18 | 19 | 20 | – | – | – | 19 | 20 | 19 | cooling action (in words) ([2]; after the washing treatment and 6 hours of air drying): almost no cooling action was observed |
